Biological target: T1, NaV1.5 (Homo sapiens, UniProt Q14524, Y1767A)
T1 construct: gene SCN5A
Assay: cell-based
Settings: CHO, read-out: % reduction at 100 μmol/L

T1 sequence (Q14524 whole entry Y1767A): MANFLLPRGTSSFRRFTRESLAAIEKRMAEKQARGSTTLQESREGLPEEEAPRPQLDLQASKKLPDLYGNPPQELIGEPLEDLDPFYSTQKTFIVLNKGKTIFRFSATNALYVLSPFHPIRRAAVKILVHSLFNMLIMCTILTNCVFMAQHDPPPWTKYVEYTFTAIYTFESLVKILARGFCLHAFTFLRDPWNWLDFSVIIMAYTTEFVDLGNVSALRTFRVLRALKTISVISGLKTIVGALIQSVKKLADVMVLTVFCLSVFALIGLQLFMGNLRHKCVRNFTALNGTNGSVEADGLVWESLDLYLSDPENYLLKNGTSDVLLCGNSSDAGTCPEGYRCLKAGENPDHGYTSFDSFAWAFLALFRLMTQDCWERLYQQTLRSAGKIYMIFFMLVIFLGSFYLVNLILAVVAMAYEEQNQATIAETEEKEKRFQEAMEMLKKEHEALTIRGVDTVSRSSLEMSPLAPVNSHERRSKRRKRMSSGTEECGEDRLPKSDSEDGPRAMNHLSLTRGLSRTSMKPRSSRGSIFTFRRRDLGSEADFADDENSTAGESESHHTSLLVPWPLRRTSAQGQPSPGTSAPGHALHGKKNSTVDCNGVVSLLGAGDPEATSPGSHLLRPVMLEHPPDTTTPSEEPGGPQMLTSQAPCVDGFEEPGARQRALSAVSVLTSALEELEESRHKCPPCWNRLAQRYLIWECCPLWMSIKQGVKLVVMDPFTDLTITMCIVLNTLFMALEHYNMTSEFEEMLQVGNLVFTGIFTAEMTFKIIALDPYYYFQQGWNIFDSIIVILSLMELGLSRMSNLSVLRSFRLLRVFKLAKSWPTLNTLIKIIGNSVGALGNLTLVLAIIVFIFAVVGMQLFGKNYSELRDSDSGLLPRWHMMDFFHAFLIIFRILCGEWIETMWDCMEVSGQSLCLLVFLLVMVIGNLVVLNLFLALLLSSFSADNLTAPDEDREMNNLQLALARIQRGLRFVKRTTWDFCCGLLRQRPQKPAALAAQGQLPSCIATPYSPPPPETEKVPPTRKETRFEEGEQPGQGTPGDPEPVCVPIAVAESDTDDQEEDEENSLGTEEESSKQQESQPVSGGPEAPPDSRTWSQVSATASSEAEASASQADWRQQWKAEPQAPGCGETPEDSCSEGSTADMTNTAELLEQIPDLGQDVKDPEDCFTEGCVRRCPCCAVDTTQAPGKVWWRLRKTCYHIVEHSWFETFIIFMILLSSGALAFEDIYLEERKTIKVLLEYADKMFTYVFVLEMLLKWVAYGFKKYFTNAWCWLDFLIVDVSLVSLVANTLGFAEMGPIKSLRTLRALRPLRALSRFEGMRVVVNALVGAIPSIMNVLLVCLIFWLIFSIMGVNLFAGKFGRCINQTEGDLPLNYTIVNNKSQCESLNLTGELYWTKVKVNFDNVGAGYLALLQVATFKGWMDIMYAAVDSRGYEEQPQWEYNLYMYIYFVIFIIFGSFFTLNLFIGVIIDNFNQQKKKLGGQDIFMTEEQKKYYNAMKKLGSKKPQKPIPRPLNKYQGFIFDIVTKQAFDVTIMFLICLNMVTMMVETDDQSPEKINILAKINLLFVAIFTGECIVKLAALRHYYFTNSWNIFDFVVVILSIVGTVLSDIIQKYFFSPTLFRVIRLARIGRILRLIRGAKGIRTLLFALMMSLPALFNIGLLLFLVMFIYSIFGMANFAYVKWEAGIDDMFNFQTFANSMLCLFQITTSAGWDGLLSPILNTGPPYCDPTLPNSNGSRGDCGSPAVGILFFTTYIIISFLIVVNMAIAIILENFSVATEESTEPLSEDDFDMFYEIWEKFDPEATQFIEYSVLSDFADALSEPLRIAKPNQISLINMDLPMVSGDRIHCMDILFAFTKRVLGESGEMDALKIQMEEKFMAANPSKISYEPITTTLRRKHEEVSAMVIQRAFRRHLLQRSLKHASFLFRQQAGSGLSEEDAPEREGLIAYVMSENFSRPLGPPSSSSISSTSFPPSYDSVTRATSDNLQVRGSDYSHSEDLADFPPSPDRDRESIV

Compound: CCOc1ccc(Cc2cc([C@@H]3O[C@H](CO)[C@@H](O)[C@H](O)[C@H]3O)ccc2Cl)cc1 [dapagliflozin]
- inhibition at 100 µM: 68.3 ± 4.2%
